Data reported in patent US7691392B2 (Kosan Biosciences Incorporated, priority 2005, dated 2010).

Assays:
[1] = Plasma pharmacokinetics of 17-AAG and 17-AG in the open-label dose escalating trial in MM patients
Method: The total number of PK samples collected was approximately 110 mL of whole blood (7-8 tablespoons). If a patient experienced a potentially drug-related SAE, additional PK samples were collected. Blood was drawn from the contralateral arm to the infusion site using an indwelling catheter to avoid multiple needle sticks. […] The blood tube was inverted several times, and the tube placed in wet ice immediately pending separation of the plasma. If a catheter was used for blood collection, the fluid in the catheter was completely withdrawn prior to each sample collection and discarded. Plasma samples were kept on wet ice during collection and centrifugation. Plasma samples were split into two cryovials prior to freezing at −70° C.
The PK analysis was performed as follows. […] PK parameters were calculated on plasma concentration time data by non-compartmental analysis using Kinetica version 4.3 software (Innaphase, Champs sur Marne, France). AUC was calculated by the mixed log-linear rule: the linear rule was applied to the range where concentration was ascending and the log-linear rule was applied to the range where the concentration was descending. AUClast is the area from t=0 to tlast, the last sampling time. AUCextra is the extrapolated area from AUClast to infinity and AUCtotal=AUClast+AUCextra and is also named AUC0-∞ area under the concentration-time curve from time zero to infinity. The terminal rate constant λz was calculated on at least three points on the elimination curve with values greater than the lower limit of quantitation. […] Table 5 lists the areas, Cmax, and half-life for the metabolite 17-AG (mean±one standard deviation). […] There was no dose dependency for half-life, clearance or distributive volumes for these dose administrations.

[2] = patients treated at 56 mg/m^2 17-AAG; cited from earlier work
[3] = Cellular assays, relative potency of 17-AAG and 17-AG; assay type: cell-based; conditions: 17-AAG versus 17-AG

Compound: CO[C@H]1/C=C\C=C(/C)C(=O)NC2=CC(=O)C(N)=C(C[C@@H](C)C[C@H](OC)[C@H](O)[C@@H](C)/C=C(\C)[C@@H]1OC(N)=O)C2=O [17-AG, 17-aminogeldanamycin]
- time post infusion from which plasma level of 17-AG exceeded the parent drug ([1]; 220 mg/m^2 cohort): approximately 7 hours
- change of AUCtotal between Day 1 and Day 11 ([1]; 17 patients, first vs fourth infusion): no pattern of increase or decrease
- dose proportionality of Cmax ([1]; 150-340 mg/m^2 17-AAG): did not increased in a dose proportional manner
- time post infusion from which plasma level of 17-AG exceeded the parent drug ([1]; 150 and 275 mg/m^2 cohorts): approximately 3 hours
- half-life ([1]; human, plasma, intravenous): 4.6 to 5.4 h
- Vz [2]: 203 L/m^2
- clearance [2]: 30.8 L/h/m^2
- relative potency in cellular assays [3]: equipotent
